From article PMC8344021, “Discovery of Small Molecule Bak Activator for Lung Cancer Therapy” (Theranostics, 2021)

Columns and labels:
[1] = tested on: other Bcl2 family members (Bax, Bcl2, Bcl-XL, Bcl-w and Mcl-1); experiment: Competitive fluorescence polarization (FP) assay, other Bcl2 family members; type: binding, human
From the text: To confirm the binding of BKA-073 with Bak, we first conducted a competitive fluorescence polarization (FP) assay using purified human Bak protein, fluorescent Bak BH3 domain peptide, and BKA-073 as described, [37]-[40]. […] There are multiple amino acid differences in the BH3 domains between Bak and other Bcl2 family members, which helps to explain why BKA-073 only binds to Bak but not to other Bcl2 family members (i.e. Bax, Bcl2, Bcl-XL, Bcl-w and Mcl-1). In addition to the FP assay, isothermal titration calorimetry (ITC) was also employed to measure Bak/BKA-073 binding. […] In addition to human Bak/BKA-073 binding, we measured mouse Bak/BKA-073 binding using ITC.
(1 x 10^5 cells) was transferred to a 5 ml culture tube, followed by the addition of 5 μl of FITC Annexin V and 5 μl propidium iodide (PI). […] Samples were analyzed by flow cytometry (BD FACSCantoTMII, BD Biosciences, San Jose, CA). ∆% cell death was calculated with the formula: (% cell death treated - % cell death non-treated) as described […]
Fluorescence polarization (FP) assay
Fluorescence polarization assay was carried out as described previously. […] The FP values (in millipolarization units) were measured using a fluorescence microplate reader at 485/530 nm (Gemini XPS, Molecular Devices). Data analysis and inhibit ory constant (Ki) value was determined by GraphPad prism software as described. […]

[2] = tested on: Bak oligomerization in A549 cells; experiment: Bak oligomerization by cross-linking with BMH; type: cell-based, human; conditions: 1μM, 24h, mitochondrial fraction, Western blot
Experimental: Bak oligomerization was analyzed as described. Briefly, 10 mM Bis (maleimido) hexane (BMH) was added to the mitochondrial fraction dissolved in conjugation buffer (PBS, pH7.2) and 5mM EDTA was added for crosslinking between sulfhydryl groups of Bak proteins. The reaction mixture was incubated for 1h at room temperature. The reaction was stopped by adding quench solution (1M DTT) for 15min at room temperature. The reaction product was subjected to SDS-PAGE gel and analyzed by Western blot using a Bak antibody.
A pivotal step in the apoptosis process is the oligomerization of Bak, [44]. To assess whether BKA-073 affects the ability of Bak to form oligomers in the mitochondrial membrane, a cross-linking study with Bis (maleimido) hexane (BMH) was carried out. […] These findings indicate that BKA-073 can activate Bak through its oligomerization in mitochondria. It is known that formation of Bak oligomers in mitochondria promotes cytochrome c (Cyt c) release to induce apoptosis, [46].

## COc1ccc2nc3ccccc3c(NCCNCC(C)O)c2c1 (centres unmarked) [BKA-073]
[1]
  binding affinity with other Bcl2 family members: very low binding affinity
[2]
  Bak oligomerization: facilitated the formation of Bak dimers and trimers
